These results are taken from patent US7319098B2, “1,3-dioxoisoindole derivatives having selective antagonism of T-type calcium channel” (Korea Institute of Science and Technology, priority 2006, dated 2008).

A word on the inhibition: it is the share of the control response that was lost under treatment.

T1 sequence (O43497 whole entry): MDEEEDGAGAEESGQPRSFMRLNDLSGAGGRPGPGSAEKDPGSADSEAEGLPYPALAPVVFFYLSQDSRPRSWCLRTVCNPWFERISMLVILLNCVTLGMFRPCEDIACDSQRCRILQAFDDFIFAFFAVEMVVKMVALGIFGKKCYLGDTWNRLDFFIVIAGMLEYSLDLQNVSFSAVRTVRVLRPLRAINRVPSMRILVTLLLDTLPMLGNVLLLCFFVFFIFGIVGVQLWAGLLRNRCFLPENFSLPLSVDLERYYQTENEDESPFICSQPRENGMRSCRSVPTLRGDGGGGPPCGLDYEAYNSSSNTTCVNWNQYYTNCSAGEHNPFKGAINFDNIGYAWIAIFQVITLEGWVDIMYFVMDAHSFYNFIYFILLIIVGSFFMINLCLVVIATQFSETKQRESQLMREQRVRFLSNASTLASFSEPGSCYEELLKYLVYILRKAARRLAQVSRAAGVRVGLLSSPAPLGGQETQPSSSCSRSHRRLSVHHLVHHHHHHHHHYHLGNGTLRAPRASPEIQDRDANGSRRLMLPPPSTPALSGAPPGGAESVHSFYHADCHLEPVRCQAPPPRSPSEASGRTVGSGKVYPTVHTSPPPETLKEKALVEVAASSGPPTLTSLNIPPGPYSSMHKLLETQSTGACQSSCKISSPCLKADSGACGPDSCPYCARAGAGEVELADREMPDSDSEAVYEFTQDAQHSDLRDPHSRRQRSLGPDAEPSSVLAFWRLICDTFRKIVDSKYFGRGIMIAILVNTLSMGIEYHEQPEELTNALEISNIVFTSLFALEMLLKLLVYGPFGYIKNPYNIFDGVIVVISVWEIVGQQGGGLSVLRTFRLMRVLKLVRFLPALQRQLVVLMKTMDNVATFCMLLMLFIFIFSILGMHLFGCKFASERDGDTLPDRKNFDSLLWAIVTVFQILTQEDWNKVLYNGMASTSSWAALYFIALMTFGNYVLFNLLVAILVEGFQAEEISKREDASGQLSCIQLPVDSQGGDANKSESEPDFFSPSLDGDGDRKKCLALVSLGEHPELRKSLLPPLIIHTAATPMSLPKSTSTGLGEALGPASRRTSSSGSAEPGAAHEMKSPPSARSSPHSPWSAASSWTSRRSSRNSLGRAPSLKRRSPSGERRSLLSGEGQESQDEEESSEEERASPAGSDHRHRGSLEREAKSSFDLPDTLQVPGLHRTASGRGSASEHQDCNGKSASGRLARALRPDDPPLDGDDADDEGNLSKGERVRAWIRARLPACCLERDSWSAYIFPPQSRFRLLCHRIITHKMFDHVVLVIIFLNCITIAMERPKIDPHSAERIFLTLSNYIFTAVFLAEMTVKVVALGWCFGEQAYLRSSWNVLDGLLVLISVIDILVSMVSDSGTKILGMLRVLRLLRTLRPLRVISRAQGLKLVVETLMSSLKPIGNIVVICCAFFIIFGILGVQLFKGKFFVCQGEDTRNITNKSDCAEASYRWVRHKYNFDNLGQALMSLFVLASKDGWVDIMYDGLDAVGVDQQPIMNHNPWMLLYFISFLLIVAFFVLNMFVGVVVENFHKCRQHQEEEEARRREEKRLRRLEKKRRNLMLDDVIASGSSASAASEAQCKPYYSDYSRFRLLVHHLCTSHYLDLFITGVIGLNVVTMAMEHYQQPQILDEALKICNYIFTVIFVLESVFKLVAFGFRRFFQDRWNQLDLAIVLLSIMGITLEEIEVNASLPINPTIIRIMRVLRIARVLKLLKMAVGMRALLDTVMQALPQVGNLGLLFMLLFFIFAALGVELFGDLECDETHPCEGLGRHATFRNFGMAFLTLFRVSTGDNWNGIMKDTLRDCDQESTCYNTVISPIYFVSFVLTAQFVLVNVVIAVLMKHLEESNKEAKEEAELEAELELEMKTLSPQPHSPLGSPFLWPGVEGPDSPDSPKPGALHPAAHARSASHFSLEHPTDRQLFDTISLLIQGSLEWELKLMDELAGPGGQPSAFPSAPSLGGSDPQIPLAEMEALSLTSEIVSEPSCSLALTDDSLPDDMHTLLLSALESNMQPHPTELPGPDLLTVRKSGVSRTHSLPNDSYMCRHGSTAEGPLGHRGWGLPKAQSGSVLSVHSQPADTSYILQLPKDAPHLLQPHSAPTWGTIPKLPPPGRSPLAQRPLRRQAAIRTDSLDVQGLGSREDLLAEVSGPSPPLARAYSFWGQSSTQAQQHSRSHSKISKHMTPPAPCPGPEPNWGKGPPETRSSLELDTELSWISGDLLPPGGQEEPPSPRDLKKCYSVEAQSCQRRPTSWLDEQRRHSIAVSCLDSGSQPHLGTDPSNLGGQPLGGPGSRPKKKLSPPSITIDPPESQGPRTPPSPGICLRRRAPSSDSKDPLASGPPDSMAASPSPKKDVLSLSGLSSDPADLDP

The first experiment has as its target T1, α1G T-type Ca2+ channels (Homo sapiens, UniProt O43497).
T1 construct: expressed in transfected cells; host or cells: HEK293 cells stably expressing α1G and Kir2.1
Briefly: Screening of activity against T-type calcium channel with FDSS6000 (fluorescence, KCl-induced [Ca2+]i increase). The experiment is classed as cell-based. The conditions noted are these: 10 μM; HEK293 cells expressing α1G and Kir2.1; NA: Not Active; read-out: Inhibitory effect (%) of T-type calcium channel, Inhibition (%). The procedure:
Meanwhile, the antagonistic activity of the novel compound of Formula (1) herein against T-type calcium channel was tested as described below. The synthesized compounds were tested for the activity against T-type calcium channel with FDSS6000. Compounds with good activity were selected and IC50 values were exactly obtained by using electrophysiological whole cell patch clamp method. HEK293 cells which stably express both α1G and Kir2.1 subunits were grown in Dulbecco's modified Eagle's medium supplemented with 10% (v/v) fetal bovine serum, penicillin (100 U/mL), streptomycin (100 μg/mL), geneticin (500 μg/mL), and +puromycin (I μg/mL) at 37° C. in a humid atmosphere of 5% CO2 and 95% air. Cells were seeded into 96-well black wall clear bottom plates at a density of 4×10^4 cells/well and were used the next day for high-throughput screening (HTS) FDSS6000 assay. For FDSS6000 assay, cells were incubated for 60 min at room temperature with 5 μM fluo3/AM and 0.001% Pluronic F-127 in a HEPES-buffered solution composed of (in mM): 115 NaCl, 5.4 KCl, 0.8 MgCl2, 1.8 CaCl2, 20 HEPES, 13.8 glucose (pH 7.4). During the fluorescence-based FDSS6000 assay, cells in HEPES-buffered solution containing 10 mM CaCl2 were pretreated with a certain concentration of test compounds and then treated with high concentration of KCl ([…]). α1G T-type Ca^2+ channels were activated by using high concentration of KCl (70 mM) and the increase in [Ca^2+]i by KCl-induced depolarization was detected. During the whole procedure, cells were washed using the BIO-TEK 96-well washer. All data were collected and analyzed using FDSS6000 and related software (Hamamatsu, Japan). The IC50 results of examining the inhibitory effects of the compounds herein selected with FDSS6000 on the calcium influx through the T-type calcium channel are provided in TABLEs 1 and 2.
With `Cc1cccc(N2C(=O)c3ccc(C(=O)NCCCN4CCCCC4C)cc3C2=O)c1` (stereo not shown) [Compound 34, 1-{3-[(1,3-dioxo-2-m-tolyl-2,3-dihydro-1H-isoindol-5-carbonyl)-amino]-propyl}-2-methyl-piperidinium chloride], the inhibition at 10 µM was found to be 10%.

Regarding `Cc1cccc(N2C(=O)c3ccc(C(=O)NCCN4CCCC4)cc3C2=O)c1` [Compound 35, 1-{2-[(1,3-dioxo-2-m-tolyl-2,3-dihydro-1H-isoindol-5-carbonyl)-amino]-ethyl}-pyrrolidinium chloride], the inhibition at 10 µM turned out to be 4.7%.

Regarding `Cc1cccc(N2C(=O)c3ccc(C(=O)NCCCN4CCCC4)cc3C2=O)c1` [Compound 36, 1-{3-[(1,3-dioxo-2-m-tolyl-2,3-dihydro-1H-isoindol-5-carbonyl)-amino]-propyl}-pyrrolidinium chloride], the inhibition at 10 µM turned out to be 5.3%.

`Cc1cccc(N2C(=O)c3ccc(C(=O)NCCN4CCOCC4)cc3C2=O)c1` [Compound 37, 4-{2-[(1,3-dioxo-2-m-tolyl-2,3-dihydro-1H-isoindol-5-carbonyl)-amino]-ethyl}-4-morpholinium chloride]: the inhibition at 10 µM worked out at 1.3%.

As for `Cc1cccc(N2C(=O)c3ccc(C(=O)NCCCN4CCOCC4)cc3C2=O)c1` [Compound 38, 4-{3-[(1,3-dioxo-2-m-tolyl-2,3-dihydro-1H-isoindol-5-carbonyl)-amino]-propyl}-4-morpholinium chloride], the inhibition at 10 µM was 4.2%.

For `Cc1ccc(N2C(=O)c3ccc(C(=O)NCCCN4CCCCC4C)cc3C2=O)cc1` (stereo not shown) [Compound 40, 1-{3-[(1,3-dioxo-2-p-tolyl-2,3-dihydro-1H-isoindol-5-carbonyl)-amino]-propyl}-2-methyl-piperidinium chloride], the inhibition at 10 µM is 11.7%.

As for `Cc1ccc(N2C(=O)c3ccc(C(=O)NCCN4CCCC4)cc3C2=O)cc1` [Compound 41, 1-{2-[(1,3-dioxo-2-p-tolyl-2,3-dihydro-1H-isoindol-5-carbonyl)-amino]-ethyl}-pyrrolidinium chloride], the inhibition at 10 µM is 2%.

Staying with this experiment, now noted: 100 μM; HEK293 cells expressing α1G and Kir2.1; read-out: Inhibitory effect (%) of T-type calcium channel, Inhibition (%).
In the case of `O=C(NCCN1CCCCC1)c1ccc2c(c1)C(=O)N(c1ccccc1Cl)C2=O` [Compound 25, 1-(2-{[2-(2-chloro-phenyl)-1,3-dioxo-2,3-dihydro-1H-isoindol-5-carbonyl]-amino}-ethyl)-piperidinium chloride], the inhibition at 100 µM is 38.2%.

Take `O=C(NCCN1CCCCC1)c1ccc2c(c1)C(=O)N(c1cccc(Cl)c1)C2=O` [Compound 26, 1-(2-{[2-(3-chloro-phenyl)-1,3-dioxo-2,3-dihydro-1H isoindol-5-carbonyl]-amino}-ethyl)-piperidinium chloride]: the inhibition at 100 µM was determined as 52.7%.

As for `O=C(NCCN1CCCCC1)c1ccc2c(c1)C(=O)N(c1ccc(Cl)cc1)C2=O` [Compound 27, 1-(2-{[2-(4-chloro-phenyl)-1,3-dioxo-2,3-dihydro-1H-isoindol-5-carbonyl]-amino}-ethyl)-piperidinium chloride], the inhibition at 100 µM was determined as 44.5%.

Turning to `Cc1ccccc1N1C(=O)c2ccc(C(=O)NCCN3CCCCC3)cc2C1=O` [Compound 28, 1-{2-[(1,3-dioxo-2-o-tolyl-2,3-dihydro-1H-isoindol-5-carbonyl)-amino]-ethyl}-piperidinium chloride], the inhibition at 100 µM is 45.6%.

Turning to `Cc1ccccc1N1C(=O)c2ccc(C(=O)NCCCN3CCCCC3C)cc2C1=O` (stereo not shown) [Compound 29, 1-{3-[(1,3-dioxo-2-o-tolyl-2,3-dihydro-1H-isoindol-5-carbonyl)-amino]-propyl}-2-methyl-piperidinium chloride], the inhibition at 100 µM was 53.8%.

In the case of `Cc1ccccc1N1C(=O)c2ccc(C(=O)NCCN3CCCC3)cc2C1=O` [Compound 30, 1-{2-[(1,3-dioxo-2-o-tolyl-2,3-dihydro-1H-isoindol-5-carbonyl)-amino]-ethyl}-pyrrolidinium chloride], the inhibition at 100 µM was 33.6%.

For the compound `Cc1ccccc1N1C(=O)c2ccc(C(=O)NCCN3CCOCC3)cc2C1=O` [Compound 32, 4-{2-[(1,3-dioxo-2-o-tolyl-2,3-dihydro-1H-isoindol-5-carbonyl)-amino]-ethyl}-4-morpholinium chloride], the inhibition at 100 µM was found to be 22.3%.

For the compound `Cc1cccc(N2C(=O)c3ccc(C(=O)NCCN4CCCCC4)cc3C2=O)c1` [Compound 33, 1-{2-[(1,3-dioxo-2-m-tolyl-2,3-dihydro-1H-isoindol-5-carbonyl)-amino]-ethyl}-piperidinium chloride], the inhibition at 100 µM came out at 64.5%.

Take `Cc1ccc(N2C(=O)c3ccc(C(=O)NCCN4CCCCC4)cc3C2=O)cc1` [Compound 39, 1-{2-[(1,3-dioxo-2-p-tolyl-2,3-dihydro-1H-isoindol-5-carbonyl)-amino]-ethyl}-piperidinium chloride]: the inhibition at 100 µM was 39.4%.

Turning to `COc1cccc(N2C(=O)c3ccc(C(=O)NCCN4CCCCC4)cc3C2=O)c1` [Compound 46, 1-(2-{[2-(3-methoxy-phenyl)-1,3-dioxo-2,3-dihydro-1H-isoindol-5-carbonyl]-amino}-ethyl)-piperidinium chloride], the inhibition at 100 µM turned out to be 31.4%.

Take `COc1ccc(N2C(=O)c3ccc(C(=O)NCCN4CCCCC4)cc3C2=O)cc1` [Compound 48, 1-(2-{[2-(4-methoxy-phenyl)-1,3-dioxo-2,3-dihydro-1H-isoindol-5-carbonyl]-amino}-ethyl)-piperidinium chloride]: the inhibition at 100 µM is 31.4%.

On to `O=C(NCCN1CCCCC1)c1ccc2c(c1)C(=O)N(Cc1ccccc1)C2=O` [Compound 49, 1-{2-[(2-benzyl-1,3-dioxo-2,3-dihydro-1H-isoindol-5-carbonyl)-amino]-ethyl}-piperidinium chloride], for which the inhibition at 100 µM came to 72.4%.

Regarding `CC1CCCCN1CCCNC(=O)c1ccc2c(c1)C(=O)N(Cc1ccccc1)C2=O` (stereo not shown) [Compound 50, 1-{3-[(2-benzyl-1,3-dioxo-2,3-dihydro-1H-isoindol-5-carbonyl)-amino]-propyl}-2-methyl-piperidinium chloride], the inhibition at 100 µM was determined as 69.6%.

For the compound `O=C(NCCN1CCCC1)c1ccc2c(c1)C(=O)N(Cc1ccccc1)C2=O` [Compound 51, 1-{2-[(2-benzyl-1,3-dioxo-2,3-dihydro-1H-isoindol-5-carbonyl)-amino]-ethyl}-pyrrolidinium chloride], the inhibition at 100 µM is 48.4%.

For `O=C(NCCCN1CCCC1)c1ccc2c(c1)C(=O)N(Cc1ccccc1)C2=O` [Compound 52, 1-{3-[(2-benzyl-1,3-dioxo-2,3-dihydro-1H-isoindol-5-carbonyl)-amino]-propyl}-pyrrolidinium chloride], the inhibition at 100 µM turned out to be 45.8%.

Consider `O=C(NCCN1CCOCC1)c1ccc2c(c1)C(=O)N(Cc1ccccc1)C2=O` [Compound 53, 4-{2-[(2-benzyl-1,3-dioxo-2,3-dihydro-1H-isoindol-5-carbonyl)-amino]-ethyl}-4-morpholinium chloride], for which the inhibition at 100 µM was determined as 42.5%.

In the case of `O=C(NCCCN1CCOCC1)c1ccc2c(c1)C(=O)N(Cc1ccccc1)C2=O` [Compound 54, 4-{3-[(2-benzyl-1,3-dioxo-2,3-dihydro-1H-isoindol-5-carbonyl)-amino]-propyl}-4-morpholinium chloride], the inhibition at 100 µM turned out to be 38.5%.

Take `O=C(NCCN1CCCCC1)c1ccc2c(c1)C(=O)N(Cc1ccccc1F)C2=O` [Compound 55, 1-(2-{[2-(2-fluoro-benzyl)-1,3-dioxo-2,3-dihydro-1H-isoindol-5-carbonyl]-amino}-ethyl)-piperidinium chloride]: the inhibition at 100 µM came out at 79.9%.
